Publication PMC11062922 (Nature Chemical Biology, 2023)

What was measured:
[1] = test system: CDC42BPB; assay: Kinobeads competition binding: CDC42BPB; parameters: species or system human; details: target CDC42BPB
[2] = test system: CDC42BPG; assay: Kinobeads competition binding: CDC42BPG; parameters: species or system human; details: target CDC42BPG
[3] = test system: FLT3; assay: Kinobeads two-dose competition binding: FLT3; parameters: species or system human; details: for CATDS: target FLT3
[4] = target: T1, BUB1 (Homo sapiens, UniProt O43683); assay: Kinobeads competition binding: BUB1; details: target BUB1
T1 construct: endogenous in cells

[5] = target: T2, GRK6 (Homo sapiens, UniProt P43250); assay: Kinobeads two-dose competition binding: GRK6; details: target GRK6
T2 construct: endogenous in cells

[6] = target: T3, FRK (Homo sapiens, UniProt P42685); assay: Kinobeads competition binding: FRK; details: target FRK
T3 construct: endogenous in cells
Source text: Supplement 41589_2023_1459_MOESM4_ESM.xlsx, sheet "CATDS matrix" | column: FRK

[7] = test system: MAPK9; assay: Kinobeads competition binding: MAPK9; parameters: species or system human; details: target MAPK9
[8] = target: T4, NQO1 (Homo sapiens, UniProt P15559); assay: Kinobeads competition binding: NQO1; details: target NQO1
T4 construct: endogenous in cells
Source text: Supplement 41589_2023_1459_MOESM4_ESM.xlsx, sheet "CATDS matrix" | column: NQO1

[9] = test system: MAP4K1; assay: Kinobeads competition binding: MAP4K1; parameters: species or system human; details: target MAP4K1
[10] = test system: MAP2K4; assay: Kinobeads competition binding: MAP2K4; parameters: species or system human; details: target MAP2K4
[11] = test system: PGK1; assay: Kinobeads competition binding: PGK1; parameters: species or system human; details: target PGK1
[12] = test system: CDK9; assay: Kinobeads competition binding: CDK9; parameters: species or system human; details: target CDK9
[13] = target: T5, HSP90B1 (Homo sapiens, UniProt P14625); assay: Kinobeads competition binding: HSP90B1; details: target HSP90B1;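 also: share of total target engagement due to this protein at one drug concentration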
T5 construct: endogenous in cells

[14] = target: T6, PIM2 (Homo sapiens, UniProt Q9P1W9); assay: Kinobeads competition binding: PIM2; details: target PIM2
T6 construct: a mixture of lysates from five cancer cell lines; endogenous in cells
Source text: Supplement 41589_2023_1459_MOESM4_ESM.xlsx, sheet "CATDS matrix" | column: PIM2

[15] = test system: MARK3; assay: Kinobeads competition binding: MARK3; parameters: species or system human; details: target MARK3
[16] = target: T7, CDK4 (Homo sapiens, UniProt P11802); assay: Kinobeads competition binding: CDK4; details: target CDK4
T7 construct: endogenous in cells
Source text: Supplement 41589_2023_1459_MOESM4_ESM.xlsx, sheet "CATDS matrix" | column: CDK4

[17] = test system: ADK; assay: Kinobeads competition binding: ADK; parameters: species or system human; details: target ADK;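 also: selectivity score: engagement of this protein divided by summed engagement of all targets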
[18] = target: T8, MET (Homo sapiens, UniProt P08581); assay: Kinobeads two-dose competition binding: MET; details: target MET
T8 construct: endogenous in cells

[19] = test system: PKM; assay: Kinobeads competition binding: PKM; parameters: species or system human; details: target PKM
[20] = test system: MAP3K3; assay: Kinobeads competition binding: MAP3K3; parameters: species or system human; details: target MAP3K3
[21] = test system: CSNK1G1; assay: Kinobeads competition binding: CSNK1G1; parameters: species or system human; details: target CSNK1G1;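 also: share of total target engagement due to this protein at one drug concentration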
[22] = target: T9, EPHB1 (Homo sapiens, UniProt P54762); assay: Kinobeads competition binding: EPHB1; details: target EPHB1
T9 construct: endogenous in cells
T9 sequence (P54762 18-984): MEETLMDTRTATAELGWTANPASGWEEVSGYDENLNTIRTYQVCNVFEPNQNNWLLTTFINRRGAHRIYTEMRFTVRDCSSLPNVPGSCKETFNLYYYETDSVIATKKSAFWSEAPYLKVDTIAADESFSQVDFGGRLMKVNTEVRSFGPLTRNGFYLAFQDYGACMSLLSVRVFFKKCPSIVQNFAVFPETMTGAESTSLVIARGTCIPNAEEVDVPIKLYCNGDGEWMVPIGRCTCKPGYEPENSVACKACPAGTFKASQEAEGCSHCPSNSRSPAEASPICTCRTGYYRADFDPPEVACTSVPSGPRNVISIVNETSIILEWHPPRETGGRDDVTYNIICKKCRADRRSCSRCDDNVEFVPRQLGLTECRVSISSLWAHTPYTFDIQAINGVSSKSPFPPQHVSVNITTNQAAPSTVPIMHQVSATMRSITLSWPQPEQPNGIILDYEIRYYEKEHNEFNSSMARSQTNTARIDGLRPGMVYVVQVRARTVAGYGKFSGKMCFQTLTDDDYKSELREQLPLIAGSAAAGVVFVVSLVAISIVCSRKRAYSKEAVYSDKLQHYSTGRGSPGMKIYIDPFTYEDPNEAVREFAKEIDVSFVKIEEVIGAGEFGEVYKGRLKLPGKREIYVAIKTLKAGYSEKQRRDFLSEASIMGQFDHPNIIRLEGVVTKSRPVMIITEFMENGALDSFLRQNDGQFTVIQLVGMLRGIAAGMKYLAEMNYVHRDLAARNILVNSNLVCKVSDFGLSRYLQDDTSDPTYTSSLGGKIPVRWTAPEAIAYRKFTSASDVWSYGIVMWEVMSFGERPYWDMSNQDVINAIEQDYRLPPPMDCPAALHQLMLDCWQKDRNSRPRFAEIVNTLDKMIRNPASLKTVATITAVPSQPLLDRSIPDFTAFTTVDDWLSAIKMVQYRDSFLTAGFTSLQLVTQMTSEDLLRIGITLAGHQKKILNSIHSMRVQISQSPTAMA
Source text: Supplement 41589_2023_1459_MOESM4_ESM.xlsx, sheet "CATDS matrix" | column: EPHB1

[23] = test system: GALK1; assay: Kinobeads competition binding: GALK1; parameters: species or system human; details: target GALK1
[24] = test system: PI4KB; assay: Kinobeads competition binding: PI4KB; parameters: species or system human; details: target PI4KB;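 also: selectivity score: engagement of this protein divided by summed engagement of all targets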
[25] = test system: IRAK3; assay: Kinobeads competition binding: IRAK3; parameters: species or system human; details: target IRAK3

Row | SMILES | CATDS [1] | CATDS [2] | CATDS [3] | CATDS [4] | CATDS [5] | CATDS [6] | CATDS [7] | CATDS [8] | CATDS [9] | CATDS [10] | CATDS [11] | CATDS [12] | CATDS [13] | CATDS [14] | CATDS [15] | CATDS [16] | CATDS [17] | CATDS [18] | CATDS [22] | CATDS [23] | other results
1 | Nc1ncnc2[nH]c(-c3ccccc3)nc12 [AH5015_KCGS] | 0 | 0 | 0 | 0 | 0 | 0 | 0 | 0 | 0 | 0 | 0 | 0 | 0 | 0 | 0 | 0 | 0 | 0 | 0 | 0 | CATDS [19]: 0; CATDS [20]: 0; CATDS [21]: 0; CATDS [24]: 0; CATDS [25]: 0
2 | CCN1CCN(Cc2ccc(Nc3ncc(F)c(-c4cc(F)c5nc(C)n(C(C)C)c5c4)n3)nc2)CC1 [Abemaciclib] | 0 | 0 | 0 | 0 | 0 | 0 | 0 | 0 | 0 | 0 | 0 | 0.02947 | 0 | 0 | 0 | 0 | 0 | 0 | 0 | 0 | CATDS [19]: 0; CATDS [20]: 0; CATDS [21]: 0; CATDS [24]: 0; CATDS [25]: 0
3 | CN(C)C/C=C/C(=O)Nc1cc2c(Nc3ccc(F)c(Cl)c3)ncnc2cc1O[C@H]1CCOC1 [Afatinib] |  |  |  |  | 0 | 0 |  | 0 |  |  | 0 |  | 0 | 0 |  | 0 | 0 | 0 | 0 | 0 | 
4 | CCc1cc2c(cc1N1CCC(N3CCOCC3)CC1)C(C)(C)c1[nH]c3cc(C#N)ccc3c1C2=O [Alectinib] | 0 | 0 | 0 | 0 | 0 | 0 | 0 | 0 | 0 | 0 | 0 | 0 | 0 | 0 | 0 | 0 | 0 | 0 | 0 | 0 | CATDS [19]: 0; CATDS [20]: 0; CATDS [21]: 0; CATDS [24]: 0; CATDS [25]: 0
5 | N#CC1(c2ccc(NC(=O)c3cccnc3NCc3ccncc3)cc2)CCCC1 [Apatinib] | 0 | 0 | 0 | 0 | 0 | 0 | 0 | 0 | 0 | 0 | 0 | 0 | 0 | 0 | 0 | 0 | 0 | 0 | 0 | 0 | CATDS [19]: 0; CATDS [20]: 0; CATDS [21]: 0; CATDS [24]: 0; CATDS [25]: 0
6 | COc1cc(Nc2ncc3c(C)nc(-c4cc5ccccc5[nH]4)n3n2)cc(OC)c1OC [GW869516X] |  |  |  |  |  |  |  |  |  |  |  |  |  |  |  |  |  |  |  |  | Kinobeads Data ([3]; FLT3): no target
